Experimental data from patent US9895344B2, “Treating various disorders with 7,8-dihydroxyflavone and derivatives thereof” (EMORY UNIVERSITY, priority 2008, dated 2018).

Tests used:
[1] = Toxicity after 3-week chronic treatment (organ pathology, complete blood count); type: in vivo, mice; settings: mouse, in vivo
Method: To explore whether 4′-dimethylamino-7,8-dihydroxyflavone and 7,8-dihydroxyflavone have any intolerable toxicity, the major organs from mice treated with both compounds at 5 mg/kg/day for 3 weeks were analyzed.

immobility = assay: Forced swim test after 21 days oral treatment; type: in vivo, C57BL/6J mice; settings: 5 mg/kg, oral injection, FIG. 34
Method: Adult male mice (2-3 months old) were randomly submitted to a forced swim test without a pre-swim. Saline, 4′-DMA-7,8-DHF and 7,8-DHF (5 mg/kg) were orally injected for 21 days. The mice were allowed to adapt to the test room for 2 days. The mice were placed in a clear glass cylinder with a diameter of 16 cm, half-filled with clear water at 24° C.
(§1) To explore whether 4′-DMA-7,8-DHF and 7,8-DHF have any antidepressant effect, a forced swim test (6 minutes, immobility recorded in the last 4 minutes) was conducted after chronic treatment of male C57BL/6J mice (8 mice/group) for 21 days via oral injection.

TrkB [2] = target: TrkB (Rattus norvegicus, UniProt Q63604); assay: TrkB activation in primary cortical neurons (p-TrkB Y817 immunoblotting); type: cell-based; set-up: endogenous in cells; host or cells: primary cortical neurons
Method: Primary cultured rat cortical neurons were prepared as follows. E17 rat pups were decapitated and cortex was extirpated, cross chopped, and suspended by pipetting for separation in 5% fetal calf serum (FCS), 5% horse serum (HS) DMEM. The cell suspension was then centrifuged at 250×g for 5 minutes. This operation was repeated again. Cells were seeded into polyethyleneimine-coated 10 cm^2 dishes and 12-well plates including coated-coverslips and incubated at 37° C. in 5% CO2/95% air. After 3 hours, the culture medium was changed to Neurobasal containing B-27 supplement (Invitrogen; Carlsbad, Calif.) and incubated for 4 days. For maintenance, half of the culture medium was changed to fresh Neurobasal/B27 every 4 days. After 1 week, the dished cultured neurons were ready for use.
To compare the TrkB activation by the synthetic compounds of Examples 9 and 10 (see FIG. 26), primary cortical cultures were prepared. The cortical neurons were treated with 500 nM of various compounds for 30 min and collected the cell lysates. […] Replacing the H-bond acceptor O atom with hydrogen bond donor NH reduced its stimulatory effect. […] In comparison, 7,8-DHF provoked TrkB activation with the minimal concentration of 100 nM (FIG. 27, right panels).

[3] = tested on: KA-induced neuronal apoptosis; assay: Kainic acid time course assay, oral TrkB agonists (caspase-3 immunoblot of brain lysates); type: in vivo, C57BL/6J mice; settings: 1 mg/kg orally, KA 20 mg/kg i.p., FIG. 30 left
Method: Male C57BL/6 mice age 60 days were orally injected with a single dose of 4′-DMA-7,8-DHF or 7,8-DHF (1 mg/kg each). KA (20 mg/kg) was i.p. injected. Animals were continually monitored for 2 hours for the onset of seizure activity. At 0, 4 and 8 hours following TrkB agonist treatment, the animals were sacrificed and the brain lysates were analyzed by immunoblotting with p-TrkB-Y817, active caspase-3 and total TrkB antibodies.
To investigate whether these compounds exert any neuroprotective effects in animals, a time course assay was conducted.

immobility time = assay: Forced swim test in TrkB F616A knockin mice with saline or 1NMPP1 pretreatment; type: in vivo; settings: drugs for five days, FIG. 36
Method: To assess whether the behavior responses by 7,8-DHF and its derivative are mediated by TrkB receptor, TrkB F616A knockin mice were utilized. The transgenic mice were subjected to saline or 1NMPP1 pretreatment (25 μM), respectively (drinking water provided one day prior to drug injection and maintained throughout whole experiment). The control and/or drugs were provided for five days. […] (Data presented in FIGS. 34, 35, and 36 as mean±SEM; *p<0.05 against vehicle, #P<0.01 against vehicle and ***P<0.0001 against vehicle, student t-test.)

TrkB [4] = target: T1, TrkB (Mus musculus, UniProt P15209); assay: Immunoblotting of brain lysates from forced swim test mice: TrkB; type: in vivo; settings: 5 mg/kg, 21 days oral, anti-p-TrkB 817, FIG. 35
T1 construct: from tissue; host or cells: mouse brain
Method: as §1

TrkA = TrkA (Mus musculus, UniProt Q3UFB7); assay: Immunoblotting of brain lysates from forced swim test mice: TrkA; type: in vivo; set-up: from tissue; host or cells: mouse brain; settings: 5 mg/kg, 21 days oral, anti-p-TrkA 794, FIG. 35
Method: as §1

caspase-3 activation = assay: Active caspase-3 ELISA in glutamate-treated cortical neurons; type: cell-based, rat; settings: 50 μM glutamate for 16 hours
Method: To quantitatively compare the anti-apoptotic activity of 7,8-DHF and 4′-DMA-7,8-DHF, cortical neurons were prepared from E16 rat embryonic cells and pretreated with various indicated concentrations of 4′-DMA-7,8-DHF and 7,8-DHF for 30 min, followed by 50 μM glutamate for 16 hours. The cell lysates were quantitatively analyzed with an active caspse-3 ELISA.

[5] = tested on: progenitor proliferation in hippocampus; assay: Neurogenesis analysis in hippocampus (BrdU); type: in vivo, C57BL/6J mice; settings: 5 mg/kg daily for 21 days, compared to vehicle control, FIGS. 32 and 33
Method: Adult male mice (2-3 months old) were orally injected with saline, 4′-DMA-7,8-DHF and 7,8-DHF (5 mg/kg) for 21 days. Then BrdU (50 mg/kg) was i.p. injected. In 2 hours, the mice were perfused with 4% paraformaldehyde. Immunohistochemical staining was performed on formalin-fixed paraffin-embedded sections. Sections from brain were cut, deparaffinized in xylene and rehydrated in graded alcohols. The slides were boiled in 10 mM citric acid (pH 6.0) for 10 minutes followed by an incubation in 2 N HCl for 10 minutes in room temperature. The slides were then permeabilized and blocked with 1% BSA in 0.2% PBST. The incorporated BrdU were stained using anti-BrdU-FITC (Abcam, Inc; Cambridge, Mass.) at 4° C. for 16 hours. After three washes in PBS, the cells were stained with DAPI for another 10 minutes at room temperature. The slides were mounted with AquaMount (Lerner Laboratories; Pittsburgh, Pa.) containing 0.01% 1,4-diazobicyclo(2,2,2)octane and examined under a fluorescence microscope.
To test whether increasing TrkB activation by 4′-dimethylamino-7,8-dihydroxyflavone would elevate neurogenesis, adult male C57BL/6J mice were injected daily for 21 days with either vehicle, 7,8-DHF, or 4′-DMA-7,8-DHF (5 mg/kg). At the end of treatment (day 21), the animals were injected with BrdU (50 mg/kg, i.p.) to label the dividing cells and were sacrificed 2 hours later. […]

[6] = tested on: KA-induced caspase-3 activation; assay: KA-induced neuronal cell death in TrkB F616A mice, oral TrkB agonists; type: in vivo, TrkB F616A knock-in mice
Method: TrkB F616A knockin mice (2-3 months old) were fed 1NMPP1 (25 μM) in drinking water one day before pharmacological reagent treatment. The next day, the mice were orally injected with 7,8-DHF or 4′-DMA-7,8-DHF (5 mg/kg) 4 hours before kainic acid (20 mg/kg). The control mice were injected with saline, 1NMPP1, kainic acid alone or administrated 7,8-DHF or 4′-DMA-7,8-DHF 4 hours before kainic acid. In 4 days, the mice were sacrificed and brains were homogenized and ultra-centrifuged. The supernatant (40 μg) was employed for SDS-PAGE and immunoblotting analysis with indicated antibodies, respectively.
To explore whether the neuroprotective effect of these small molecules is dependent on TrkB activation in vivo, TrkB F616A knock-in mice were used.

TrkB [7] = target: T1, TrkB; assay: Time course of TrkB activation in mouse brain; type: in vivo, C57BL/6J mice
Method: To compare the stimulatory effect on TrkB receptor in mouse brain, 1 mg/kg of these compounds was injected into C57BL/6J mice and monitored TrkB activation at different time points (see FIG. 28). […] In contrast, 7,8-DHF triggered TrkB activation 2 h after oral injection and peaked at 4 h and TrkB activity progressively faded away. The TrkB activity was demonstrable even at 16 h (FIG. 28).

[8] = 1 mg/kg, oral injection, FIG. 28

T1 sequence (P15209 32-821): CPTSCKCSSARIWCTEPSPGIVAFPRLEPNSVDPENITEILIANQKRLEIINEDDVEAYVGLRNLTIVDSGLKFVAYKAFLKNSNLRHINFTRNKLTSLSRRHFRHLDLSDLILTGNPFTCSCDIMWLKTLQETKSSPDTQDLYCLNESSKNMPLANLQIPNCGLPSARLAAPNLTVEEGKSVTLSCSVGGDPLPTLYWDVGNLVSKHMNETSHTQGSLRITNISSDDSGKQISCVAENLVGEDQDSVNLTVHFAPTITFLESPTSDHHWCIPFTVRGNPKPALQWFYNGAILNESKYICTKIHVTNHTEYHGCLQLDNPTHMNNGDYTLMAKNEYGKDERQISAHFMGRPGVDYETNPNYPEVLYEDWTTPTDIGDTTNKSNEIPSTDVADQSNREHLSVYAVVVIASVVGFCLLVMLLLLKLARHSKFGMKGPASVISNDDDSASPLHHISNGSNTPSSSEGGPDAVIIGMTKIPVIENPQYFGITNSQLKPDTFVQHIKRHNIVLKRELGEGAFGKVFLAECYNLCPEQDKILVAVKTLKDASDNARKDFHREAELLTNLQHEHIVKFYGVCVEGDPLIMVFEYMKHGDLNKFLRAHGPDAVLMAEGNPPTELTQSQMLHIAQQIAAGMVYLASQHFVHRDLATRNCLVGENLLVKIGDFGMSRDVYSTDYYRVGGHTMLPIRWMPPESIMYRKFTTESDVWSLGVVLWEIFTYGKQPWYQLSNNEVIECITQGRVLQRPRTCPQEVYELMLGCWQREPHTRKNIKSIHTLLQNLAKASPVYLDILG
Sequence of TrkB (Rattus norvegicus, UniProt Q63604) (Q63604 32-821): as the sequence (P15209 32-821) above, with T3M, S9T, A10T, V32I, R63K, S84G, M153T, L185I, S394T, S770N counted along it
Sequence of TrkA (Q3UFB7 34-799): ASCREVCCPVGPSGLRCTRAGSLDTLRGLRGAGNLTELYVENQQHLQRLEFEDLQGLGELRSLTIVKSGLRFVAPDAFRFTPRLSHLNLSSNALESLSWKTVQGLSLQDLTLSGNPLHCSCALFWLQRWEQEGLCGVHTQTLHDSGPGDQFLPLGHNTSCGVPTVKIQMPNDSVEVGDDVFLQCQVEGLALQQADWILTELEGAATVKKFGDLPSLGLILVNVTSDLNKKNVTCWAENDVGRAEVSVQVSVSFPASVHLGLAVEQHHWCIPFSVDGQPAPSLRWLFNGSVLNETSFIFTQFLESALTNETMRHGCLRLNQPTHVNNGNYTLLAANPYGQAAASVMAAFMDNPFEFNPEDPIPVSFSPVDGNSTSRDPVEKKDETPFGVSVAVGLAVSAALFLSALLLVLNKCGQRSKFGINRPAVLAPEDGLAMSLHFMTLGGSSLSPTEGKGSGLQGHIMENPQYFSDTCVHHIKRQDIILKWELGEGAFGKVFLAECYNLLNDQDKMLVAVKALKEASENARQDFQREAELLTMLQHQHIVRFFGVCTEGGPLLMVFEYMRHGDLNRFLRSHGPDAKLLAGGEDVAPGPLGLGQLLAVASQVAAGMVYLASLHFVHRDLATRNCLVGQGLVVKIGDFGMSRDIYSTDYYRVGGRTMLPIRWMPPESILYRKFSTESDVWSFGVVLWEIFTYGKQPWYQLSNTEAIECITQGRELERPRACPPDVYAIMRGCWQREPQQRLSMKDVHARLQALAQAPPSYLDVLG

CN(C)c1ccc(-c2cc(=O)c3ccc(O)c(O)c3o2)cc1 [4′-DMA-7,8-DHF, 4′-Dimethylamino-7,8-dihydroxyflavone]
complete blood count (CBC) versus control saline-treated mice [1]: no significant difference
toxicity to the mice [1]: neither compound was toxic
swimming immobility (immobility): evidently reduced the immobility
TrkB activation (TrkB [2]; 500 nM, 30 min, FIG. 27 left): robustly provoked TrkB activation
minimal concentration triggering TrkB activation (titration assay) (TrkB [2]; FIG. 27 right): 10 nM
KA-induced neuronal apoptosis over time [3]: gradually decreased
immobility time after 1NMPP1 treatment (immobility time; 1NMPP1 25 μM in drinking water): neither 4′-DMA-7,8-DHF nor 7,8-DHF had any significant effect
immobility time, saline group (immobility time): substantially reduced the immobility time
TrkB activation in mouse brain (TrkB [4]): provoke TrkB
TrkA activation in mouse brain (TrkA): not TrkA activation
inhibitory effect on caspase-3 activation at 10 nM (caspase-3 activation; 10 nM): more robust inhibitory effect than 7,8-DHF
Glutamate-provoked caspase-3 activation (caspase-3 activation; 50 nM or higher concentrations, FIG. 29): substantially blocked
neurogenesis (BrdU) [5]: increased neurogenesis
KA-caused caspase-3 activation ([6]; 5 mg/kg orally 4 hours before kainic acid (20 mg/kg), FIG. 31): markedly diminished
protective effect after 1NMPP1 pretreatment ([6]; 1NMPP1 (25 μM) in drinking water, FIG. 31 top): abolished
TrkB phosphorylation after 1NMPP1 pretreatment ([6]; FIG. 31, 2nd panel): notably blocked
TrkB activity at 16 h (TrkB [7]; [8]): partially decayed
time at which TrkB activation was elicited (TrkB [7]; [8]): 1 h
time at which TrkB activity peaked (TrkB [7]; [8]): 8 h
agonistic effect on TrkB relative to 7,8-DHF (TrkB [7]; mouse, in vivo): about 10 fold
duration of agonistic effect in animals relative to 7,8-DHF (TrkB [7]; mouse, in vivo): sustained longer
